The values that follow are results of earlier work, collected in patent US5439687A, “Dosage forms having zero-order dihydropyridine calcium antagonist release” (priority 1992, dated 1995).

SMILES strings stand for the structures.

The conditions of the data set: rapid influx rate with high plasma level peaks.

Take `COC(=O)C1=C(C)NC(C)=C(C(=O)OC)C1c1ccccc1[N+](=O)[O-]` [nifedipine]: the “Side-effect rate and blood pressure lowering effectiveness” value was “associated with an increased side-effect rate (tachycardia) and reduced effectiveness in lowering blood pressure”.
